# Measured values from patent US6949660B2, “Chiral (1pyrrolino) fullerene derivatives” (Seth Nanotechnology, Incorporated, priority 1995, dated 2005).
# Key:
# [1] = test system: superoxide radicals (O2−); assay: Superoxide radical scavenging: xanthine/xanthine oxidase system, cytochrome C reduction, absorption at 550 nm; type: biochemical; conditions: xanthine 50 μM, cytochrome C 10 μM, phosphate buffer pH 7.8
# Protocol: Detection of high free radical scavenging potency of hydrophilic fullerene derivatives. […] Therefore, the detected optical absorption intensity of the reduced cytochrome (Fe^+2) C can be correlated to the quantity of superoxide radicals reacted with cytochrome (Fe^+3) C. Scavenging of superoxide radicals by hydrophilic fullerene derivatives in the bio-medium inhibits the formation of reduced cytochrome (Fe+2) C and thus reduce the optical absorption at 550 nm.
# In one experiment, xanthine (50 μM) was added to a physiological medium (3 ml) containing cytochrome C (10 μM), ethylenediaminetetraacetic acid (EDTA) (10 mM) and a phosphate buffer (50 mM) at pH 7.8. The mixture was then added xanthine oxidase in quantity enough to induce 0.025 unit of optical absorption at 550 nm per 5 min (Mc Cord, et al. J. Biol. Chem. 1969, 244, 6049.). Subsequently, 1,3-dimethyl-N-succinamitofulleropyrrolidine-1,3-dicarboxylic acid, C60[C(CH3)CO2H]2NCO—CH2CH2CO2H, prepared in Example 12, in a concentration of 0, 5.0, 10.0, 25.0, 50, and 100 μM was added in separated runs while the absorption intensity of the reduced cytochrome C was recorded. A rapid decrease of reduced cytochrome C to roughly 50% and 20% of the control value was obtained with the dose of 1,3-dimethyl-N-succinamitofulleropyrrolidine-1,3-dicarboxylic acid as 25 and 100 μM, respectively.
# [2] = test system: Fibrosarcoma tumor cells (CCRC 60037); assay: Growth inhibition of fibrosarcoma tumor cells upon photo-irradiation, MTT assay; type: cell-based; conditions: compound 2.5 μM for 24 h; fluorescence light (27 W) photo-irradiation more than 20 min; then 48 h at 37° C.
# Protocol: The growth inhibitory effect of 1,3-dimethyl-N-succinamitofulleropyrrolidine-1,3-dicarboxylic acid, C60[C(CH3)CO2H]2NCO—CH2CH2CO2H, which was prepared as described in Example 12, on fibrosarcoma tumor cells upon photo-irradiation was studied in vitro. Fibrosarcoma tumor cells (0.5 ml, 4×10^4/ml, CCRC 60037) were grown in the MEM medium in a 24-well plate for a period of 24 h. It was treated by 1,3-dimethyl-N-succinamitofulleropyrrolidine-1,3-dicarboxylic acid in a concentration of 0.0, 2.5, 5.0, 7.5, and 10.0 μM for a period of 24 hours. The MEM medium was removed and replaced by the fresh medium (1.0 ml). The cell-containing plates were exposed to a fluorescence light source (27 W) in a distance of 5-6 cm for a period of 10, 20, 40, and 60 min. The plates were then kept in incubator at 37° C. a period of 48 h. Measurement of cell viability in each plate was performed by the MTT assay using optical absorption at 540 nm.
substance,measurement,setting,value
"1,3-dimethyl-N-succinamitofulleropyrrolidine-1,3-dicarboxylic acid","reduced cytochrome C, % of the control value",[1]; compound 25 μM,roughly 50%
same,"reduced cytochrome C, % of the control value",[1]; compound 100 μM,~20%
same,"tumor cell count (cell viability, MTT, absorption at 540 nm)",[2],rapid decrease in the tumor cell count
